Measured values as given in ChEMBL document CHEMBL3745645, “Synthesis, in vitro antitumor activity, dihydrofolate reductase inhibition, DNA intercalation and structure-activity relationship studies of 1,3,5-triazine analogues” (Bioorg Med Chem Lett, 2016).
The source made the active and inactive calls. No cut-off for these calls is given here.

What was measured:
Type in all cases: functional
CAKI-1 = assay: Cytotoxicity against human Caki1 cells at 10 uM after 48 hrs by SRB assay
[1] = Cytotoxicity against human RXF393 cells at 10 uM after 48 hrs by SRB assay; settings: RXF 393, 48 h, read-out: GI
SN12C = assay: Cytotoxicity against human SN12C cells at 10 uM after 48 hrs by SRB assay; settings: read-out: GI
[2] = Cytotoxicity against human TK10 cells at 10 uM after 48 hrs by SRB assay; settings: TK-10, 48 h, read-out: GI
[3] = Cytotoxicity against human UO31 cells at 10 uM after 48 hrs by SRB assay; settings: UO-31, 48 h, read-out: GI
[4] = Cytotoxicity against human DU145 cells at 10 uM after 48 hrs by SRB assay; settings: DU-145, 48 h, read-out: GI
MCF7 = assay: Cytotoxicity against human MCF7 cells at 10 uM after 48 hrs by SRB assay; settings: MCF7, 48 h, read-out: GI
MDA-MB-231 = assay: Cytotoxicity against human MDA-MB-231 cells at 10 uM after 48 hrs by SRB assay; settings: MDA-MB-231, 48 h, read-out: GI
[5] = Cytotoxicity against human Hs 578T cells at 10 uM after 48 hrs by SRB assay; settings: read-out: GI
[6] = Cytotoxicity against human BT549 cells at 10 uM after 48 hrs by SRB assay; settings: BT-549, 48 h, read-out: GI
T47D = assay: Cytotoxicity against human T47D cells at 10 uM after 48 hrs by SRB assay; settings: read-out: GI
MDA-MB-468 = assay: Cytotoxicity against human MDA-MB-468 cells at 10 uM after 48 hrs by SRB assay; settings: MDA-MB-468, 48 h, read-out: GI
CCRF-CEM = assay: Cytotoxicity against human CCRF-CEM cells at 10 uM after 48 hrs by SRB assay
[7] = Cytotoxicity against human HL-60(TB) cells at 10 uM after 48 hrs by SRB assay; settings: HL-60, 48 h, read-out: GI
K562 = assay: Cytotoxicity against human K562 cells at 10 uM after 48 hrs by SRB assay; settings: K562, 48 h, read-out: GI
[8] = Cytotoxicity against human MOLT4 cells at 10 uM after 48 hrs by SRB assay; settings: MOLT-4, 48 h, read-out: GI
[9] = Cytotoxicity against human RPMI8226 cells at 10 uM after 48 hrs by SRB assay; settings: RPMI-8226, 48 h, read-out: GI
SR = assay: Cytotoxicity against human SR cells at 10 uM after 48 hrs by SRB assay; settings: read-out: GI
A549 = assay: Cytotoxicity against human A549 cells at 10 uM after 48 hrs by SRB assay; settings: A549, 48 h, read-out: GI
[10] = Cytotoxicity against human HOP62 cells at 10 uM after 48 hrs by SRB assay; settings: HOP-62, 48 h, read-out: GI
[11] = Cytotoxicity against human HOP92 cells at 10 uM after 48 hrs by SRB assay; settings: HOP-92, 48 h, read-out: GI
NCI-H226 = assay: Cytotoxicity against human NCI-H226 cells at 10 uM after 48 hrs by SRB assay; settings: NCI-H226, 48 h, read-out: GI
NCI-H460 = assay: Cytotoxicity against human NCI-H460 cells at 10 uM after 48 hrs by SRB assay; settings: NCI-H460, 48 h, read-out: GI
NCI-H522 = assay: Cytotoxicity against human NCI-H522 cells at 10 uM after 48 hrs by SRB assay; settings: NCI-H522, 48 h, read-out: GI
[12] = Cytotoxicity against human COLO205 cells at 10 uM after 48 hrs by SRB assay; settings: COLO 205, 48 h, read-out: GI
[13] = Cytotoxicity against human HCC2998 cells at 10 uM after 48 hrs by SRB assay; settings: HCC 2998, 48 h, read-out: GI
[14] = Cytotoxicity against human HCT116 cells at 10 uM after 48 hrs by SRB assay; settings: HCT-116, 48 h, read-out: GI
[15] = Cytotoxicity against human HCT15 cells at 10 uM after 48 hrs by SRB assay; settings: HCT-15, 48 h, read-out: GI
HT-29 = assay: Cytotoxicity against human HT-29 cells at 10 uM after 48 hrs by SRB assay; settings: HT-29, 48 h, read-out: GI
KM12 = assay: Cytotoxicity against human KM12 cells at 10 uM after 48 hrs by SRB assay; settings: KM12, 48 h, read-out: GI
[16] = Cytotoxicity against human SW620 cells at 10 uM after 48 hrs by SRB assay; settings: SW-620, 48 h, read-out: GI
[17] = Cytotoxicity against human SF268 cells at 10 uM after 48 hrs by SRB assay; settings: SF-268, 48 h, read-out: GI
[18] = Cytotoxicity against human SF295 cells at 10 uM after 48 hrs by SRB assay; settings: SF-295, 48 h, read-out: GI
[19] = Cytotoxicity against human SF539 cells at 10 uM after 48 hrs by SRB assay; settings: SF-539, 48 h, read-out: GI
[20] = Cytotoxicity against human SNB19 cells at 10 uM after 48 hrs by SRB assay; settings: SNB-19, 48 h, read-out: GI
[21] = Cytotoxicity against human SNB75 cells at 10 uM after 48 hrs by SRB assay; settings: SNB-75, 48 h, read-out: GI
U-251 = assay: Cytotoxicity against human U251 cells at 10 uM after 48 hrs by SRB assay; settings: U-251, 48 h, read-out: GI
[22] = Cytotoxicity against human LOXIMVI cells at 10 uM after 48 hrs by SRB assay; settings: LOX IMVI, read-out: GI
Malme-3M = assay: Cytotoxicity against human MALME-3M cells at 10 uM after 48 hrs by SRB assay; settings: read-out: GI
M14 = assay: Cytotoxicity against human M14 cells at 10 uM after 48 hrs by SRB assay; settings: M14, 48 h, read-out: GI
MDA-MB-435 = assay: Cytotoxicity against human MDA-MB-435 cells at 10 uM after 48 hrs by SRB assay; settings: MDA-MB-435, 48 h, read-out: GI
SK-MEL-2 = assay: Cytotoxicity against human SK-MEL-2 cells at 10 uM after 48 hrs by SRB assay; settings: SK-MEL-2, 48 h, read-out: GI
SK-MEL-28 = assay: Cytotoxicity against human SK-MEL-28 cells at 10 uM after 48 hrs by SRB assay; settings: SK-MEL-28, 48 h, read-out: GI
SK-MEL-5 = assay: Cytotoxicity against human SK-MEL-5 cells at 10 uM after 48 hrs by SRB assay; settings: SK-MEL-5, 48 h, read-out: GI
[23] = Cytotoxicity against human UACC257 cells at 10 uM after 48 hrs by SRB assay; settings: UACC-257, 48 h, read-out: GI
[24] = Cytotoxicity against human IGROV1 cells at 10 uM after 48 hrs by SRB assay; settings: IGROV-1, 48 h, read-out: GI
[25] = Cytotoxicity against human OVCAR3 cells at 10 uM after 48 hrs by SRB assay; settings: OVCAR-3, 48 h, read-out: GI
[26] = Cytotoxicity against human OVCAR4 cells at 10 uM after 48 hrs by SRB assay; settings: OVCAR-4, 48 h, read-out: GI
OVCAR-5 = assay: Cytotoxicity against human OVCAR5 cells at 10 uM after 48 hrs by SRB assay
[27] = Cytotoxicity against human OVCAR8 cells at 10 uM after 48 hrs by SRB assay; settings: OVCAR-8, 48 h, read-out: GI
[28] = Cytotoxicity against human NCI-ADR-RES cells at 10 uM after 48 hrs by SRB assay; settings: read-out: GI
[29] = Cytotoxicity against human SKOV3 cells at 10 uM after 48 hrs by SRB assay; settings: SK-OV-3, 48 h, read-out: GI
786-0 = assay: Cytotoxicity against human 786-0 cells at 10 uM after 48 hrs by SRB assay; settings: 786-0, 48 h, read-out: GI
A498 = assay: Cytotoxicity against human A498 cells at 10 uM after 48 hrs by SRB assay; settings: A498, 48 h, read-out: GI
ACHN = assay: Cytotoxicity against human ACHN cells at 10 uM after 48 hrs by SRB assay; settings: read-out: GI

In the case of `Cc1nc2cc(Nc3nc(Nc4ccc(F)cc4)nc(-c4ccccc4)n3)ccc2n1Cc1ccccc1`, the “growth inhibition (GI)” value (CAKI-1) was “inactive”, the inhibition of growth at 10 µM [1] was 30.9% and the inhibition of growth at 10 µM (SN12C) was 21.9%. The inhibition of growth at 10 µM [2] was 0.81%, the inhibition of growth at 10 µM [3] was 43.4% and the inhibition of growth at 10 µM [4] was 2.93%. The inhibition of growth at 10 µM (MCF7) was 54.9%, the inhibition of growth at 10 µM (MDA-MB-231) was 9.76% and the inhibition of growth at 10 µM [5] was 20.4%. For the same molecule, the inhibition of growth at 10 µM [6] was 4.6%, the inhibition of growth at 10 µM (T47D) was 55.5% and the inhibition of growth at 10 µM (MDA-MB-468) was 27.6%. The “growth inhibition (GI)” value (CCRF-CEM) was “inactive”, the inhibition of growth at 10 µM [7] was 36.3% and the inhibition of growth at 10 µM (K562) was 38.2%. For the same molecule, the inhibition of growth at 10 µM [8] was 41.8%, the inhibition of growth at 10 µM [9] was 53% and the inhibition of growth at 10 µM (SR) was 68.2%. It also gave an inhibition of growth at 10 µM (A549) of 32.5%, an inhibition of growth at 10 µM [10] of 5.32% and an inhibition of growth at 10 µM [11] of 35.6%. It also gave an inhibition of growth at 10 µM (NCI-H226) of 19.3%, an inhibition of growth at 10 µM (NCI-H460) of 16.8% and an inhibition of growth at 10 µM (NCI-H522) of 24.1%. It also gave an inhibition of growth at 10 µM [12] of 29.5%, an inhibition of growth at 10 µM [13] of 12% and an inhibition of growth at 10 µM [14] of 39.7%. It also gave an inhibition of growth at 10 µM [15] of 32.4%, an inhibition of growth at 10 µM (HT-29) of 40.6% and an inhibition of growth at 10 µM (KM12) of 39.8%. It also gave an inhibition of growth at 10 µM [16] of 15.4%, an inhibition of growth at 10 µM [17] of 23.8% and an inhibition of growth at 10 µM [18] of 17.3%. It also gave an inhibition of growth at 10 µM [19] of 0.21%, an inhibition of growth at 10 µM [20] of 31.5% and an inhibition of growth at 10 µM [21] of 28.4%. The inhibition of growth at 10 µM (U-251) was 36.6%, the inhibition of growth at 10 µM [22] was 12.3% and the inhibition of growth at 10 µM (Malme-3M) was 11.4%. For the same molecule, the inhibition of growth at 10 µM (M14) was 34.1%, the inhibition of growth at 10 µM (MDA-MB-435) was 40% and the inhibition of growth at 10 µM (SK-MEL-2) was 25.4%. The inhibition of growth at 10 µM (SK-MEL-28) was 5.63%, the inhibition of growth at 10 µM (SK-MEL-5) was 14.5% and the inhibition of growth at 10 µM [23] was 18.7%. The inhibition of growth at 10 µM [24] was 31%, the inhibition of growth at 10 µM [25] was 18.8% and the inhibition of growth at 10 µM [26] was 39.8%. For the same molecule, the “growth inhibition (GI)” value (OVCAR-5) was “inactive”, the inhibition of growth at 10 µM [27] was 32.2% and the inhibition of growth at 10 µM [28] was 29.5%. It also gave an inhibition of growth at 10 µM [29] of 1.78%, an inhibition of growth at 10 µM (786-0) of 18.4% and an inhibition of growth at 10 µM (A498) of 23.2%. For the same molecule, the inhibition of growth at 10 µM (ACHN) was 23.6%.
